# Experimental data taken from patent US20100004285A1, “POLYMORPH OF 4-[2-[4-[1-(2-ETHOXYETHYL)-1H-BENZIMIDAZOLE-2-YL]-1-PIPERIDINYL]ETHYL]-alpha alpha-DIMETHYL-BENZENEACETIC ACID” (FAES FARMA, S.A., priority 2002, published 2010).
# Entries after “also recorded” stand apart in the source; their conditions may differ.
# Experiments:
# [1] = stability of the crystalline polymorphic forms of bilastine; type: physicochemical
# [2] = tested on: histamine-induced lethality; assay: preventing histamine-induced lethality in the guinea-pig; type: in vivo
# [3] = tested on: cutaneous capillary permeability induced by histamine; assay: antagonism against cutaneous capillary permeability induced by histamine in the rat; type: in vivo
Structure (SMILES),stability of the crystalline form [1],transformation into the other polymorphs [1],stability of the polymorph at room temperature ([1]; room temperature),stability when stored at temperatures above room temperature ([1]; stored at temperatures above room temperature),antihistaminic properties: histamine-induced lethality [2],antihistaminic properties: cutaneous capillary permeability induced by histamine [3]
"CCOCCn1c(C2CCN(CCc3ccc(C(C)(C)C(=O)O)cc3)CC2)nc2ccccc21 [crystalline form 1, 4-[2-[4-[1-(2-ethoxyethyl)-1H benzimidazole-2-yl]-1-piperidinyl]ethyl]-αα-dimethyl-benzeneacetic acid]",stable; also recorded: very stable,not transformed into any of the other polymorphs 2 and 3,very stable,stable,preventing histamine-induced lethality,antagonism against cutaneous capillary permeability induced by histamine
"CCOCCn1c(C2CCN(CCc3ccc(C(C)(C)C(=O)O)cc3)CC2)nc2ccccc21 [crystalline form 2, 4-[2-[4-[1-(2-ethoxyethyl)-1H benzimidazole-2-yl]-1-piperidinyl]ethyl]-αα-dimethyl-benzeneacetic acid]",stable,,,,,
"CCOCCn1c(C2CCN(CCc3ccc(C(C)(C)C(=O)O)cc3)CC2)nc2ccccc21 [crystalline form 3, 4-[2-[4-[1-(2-ethoxyethyl)-1H benzimidazole-2-yl]-1-piperidinyl]ethyl]-αα-dimethyl-benzeneacetic acid]",not very stable; also recorded: the most unstable,,,,,
